Results as given in patent US20260015350A1, “AZAQUINAZOLINE PAN-KRAS INHIBITORS” (Mirati Therapeutics, Inc., priority 2022, published 2026).

Legend:
KRas^G12D = biological target: T1, KRas^G12D (Homo sapiens, UniProt P01116, G12D); assay: KRas binding assay (TR-FRET tracer displacement), KRas G12D
T1 construct: Biotinylated KRas (corresponding to amino acids 1-169, produced at Accelegan Inc.); biotin (biotinylated); purchased Accelegan Inc

KRas^G12R = biological target: T2, KRas^G12R (Homo sapiens, UniProt P01116, G12R); assay: KRas binding assay (TR-FRET tracer displacement), KRas G12R
T2 construct: Biotinylated KRas (corresponding to amino acids 1-169, produced at Accelegan Inc.); biotin (biotinylated); purchased Accelegan Inc

KRas^G12V = biological target: T3, KRas^G12V (Homo sapiens, UniProt P01116, G12V); assay: KRas binding assay (TR-FRET tracer displacement), KRas G12V
T3 construct: Biotinylated KRas (corresponding to amino acids 1-169, produced at Accelegan Inc.); biotin (biotinylated); purchased Accelegan Inc
T3 sequence (P01116 1-169 isoform P01116-2 G12V): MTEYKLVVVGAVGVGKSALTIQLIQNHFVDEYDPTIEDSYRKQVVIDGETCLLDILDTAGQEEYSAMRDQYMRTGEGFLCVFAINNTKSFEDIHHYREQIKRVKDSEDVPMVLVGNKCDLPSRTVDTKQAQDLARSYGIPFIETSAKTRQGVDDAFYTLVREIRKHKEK

T2 sequence (P01116 1-169 isoform P01116-2 G12R): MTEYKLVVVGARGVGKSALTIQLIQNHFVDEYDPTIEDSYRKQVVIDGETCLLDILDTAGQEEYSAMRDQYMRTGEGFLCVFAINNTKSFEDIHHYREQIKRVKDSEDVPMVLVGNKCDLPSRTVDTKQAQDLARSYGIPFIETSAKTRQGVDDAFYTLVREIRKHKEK
T1 sequence (P01116 1-169 isoform P01116-2 G12D): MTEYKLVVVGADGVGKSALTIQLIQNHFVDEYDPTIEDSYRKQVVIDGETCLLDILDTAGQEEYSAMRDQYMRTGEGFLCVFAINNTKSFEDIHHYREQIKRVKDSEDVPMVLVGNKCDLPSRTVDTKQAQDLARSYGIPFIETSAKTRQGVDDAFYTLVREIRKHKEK

Row | Compound | IC50 (KRas^G12D) [nM] | IC50 (KRas^G12R) [nM] | IC50 (KRas^G12V) [nM]
1 | CCCCCCCCCCN(C)C(=O)OC[C@@H]1CC[C@@]2(COc3nc(N4CCC[C@@](C)(O)C4)c4cnc(-c5cc(O)cc6ccc(F)c(CC)c56)c(F)c4n3)CCCN12 [Example 894, ((3S,7aR)-7a-(((7-(8-ethyl-7-fluoro-3-hydroxynaphthalen-1-yl)-8-fluoro-4-((R)-3-hydroxy-3-methylpiperidin-1-yl)pyrido[4,3-d]pyrimidin-2-yl)oxy)methyl)hexahydro-1H-pyrrolizin-3-yl)methyl decyl(methyl)carbamate] | 121 | 177 | 119
2 | O[C@@H]1CCCN(c2nc(OCC34CCCN3CCC4)nc3c(F)c(-c4cccc5cccc(Cl)c45)ncc23)C1 [Example 902, (R)-1-(7-(8-chloronaphthalen-1-yl)-8-fluoro-2-((tetrahydro-1H-pyrrolizin-7a(5H)-yl)methoxy)pyrido[4,3-d]pyrimidin-4-yl) piperidin-3-ol] | 834 | 876 | 902
3 | O[C@H]1CCCN(c2nc(OCC34CCCN3CCC4)nc3c(F)c(-c4cccc5cccc(Cl)c45)ncc23)C1 [Example 903, (S)-1-(7-(8-chloronaphthalen-1-yl)-8-fluoro-2-((tetrahydro-1H-pyrrolizin-7a(5H)-yl)methoxy)pyrido[4,3-d]pyrimidin-4-yl) piperidin-3-ol] | 9830 | 11200 | 15100

Stronger by IC50 (KRas^G12D), values ahead:

Row | IC50 (KRas^G12D) [nM] | IC50 (KRas^G12R) [nM] | IC50 (KRas^G12V) [nM] | Compound
4 | 102 | 7350 | 3530 | CCc1c(F)ccc2cc(O)cc(-c3ncc4c(N5CCN(C)C[C@]6(C)CCC[C@@H]56)nc(OC[C@@]56CCCN5C[C@H](F)C6)nc4c3F)c12 [Example 866, 4-(4-((5aS,8aR)-4,5a-dimethyloctahydrocyclopenta[e][1,4]diazepin-1(2H)-yl)-8-fluoro-2-(((2R,7aS)-2-fluorotetrahydro-1H-pyrrolizin-7a(5H)-yl)methoxy)pyrido[4,3-d]pyrimidin-7-yl)-5-ethyl-6-fluoronaphthalen-2-ol]
5 | 66 | 646 | 247 | O=S1(=O)NCC2(CCCN(c3nc(OCC45CCCN4CCC5)nc4c(F)c(-c5cccc6cccc(CO)c56)ncc34)C2)N1 (stereo not drawn) [Example 906, 7-(8-fluoro-7-(8-(hydroxymethyl)naphthalen-1-yl)-2-((tetrahydro-1H-pyrrolizin-7a(5H)-yl)methoxy)pyrido[4,3-d]pyrimidin-4-yl)-2-thia-1,3,7-triazaspiro[4.5]decane 2,2-dioxide]
